Here are results for 14 molecules from ChEMBL document CHEMBL1152872, “Discovery of N-{[1-(propylsulfonyl)-4-pyridin-2-ylpiperidin-4-yl]methyl}benzamides as novel, selective and potent GlyT1 inhibitors” (Bioorg Med Chem Lett, 2009).

The target in this assay is T1, Sodium- and chloride-dependent glycine transporter 1 (Homo sapiens, UniProt P48067).
T1 sequence (P48067 whole entry): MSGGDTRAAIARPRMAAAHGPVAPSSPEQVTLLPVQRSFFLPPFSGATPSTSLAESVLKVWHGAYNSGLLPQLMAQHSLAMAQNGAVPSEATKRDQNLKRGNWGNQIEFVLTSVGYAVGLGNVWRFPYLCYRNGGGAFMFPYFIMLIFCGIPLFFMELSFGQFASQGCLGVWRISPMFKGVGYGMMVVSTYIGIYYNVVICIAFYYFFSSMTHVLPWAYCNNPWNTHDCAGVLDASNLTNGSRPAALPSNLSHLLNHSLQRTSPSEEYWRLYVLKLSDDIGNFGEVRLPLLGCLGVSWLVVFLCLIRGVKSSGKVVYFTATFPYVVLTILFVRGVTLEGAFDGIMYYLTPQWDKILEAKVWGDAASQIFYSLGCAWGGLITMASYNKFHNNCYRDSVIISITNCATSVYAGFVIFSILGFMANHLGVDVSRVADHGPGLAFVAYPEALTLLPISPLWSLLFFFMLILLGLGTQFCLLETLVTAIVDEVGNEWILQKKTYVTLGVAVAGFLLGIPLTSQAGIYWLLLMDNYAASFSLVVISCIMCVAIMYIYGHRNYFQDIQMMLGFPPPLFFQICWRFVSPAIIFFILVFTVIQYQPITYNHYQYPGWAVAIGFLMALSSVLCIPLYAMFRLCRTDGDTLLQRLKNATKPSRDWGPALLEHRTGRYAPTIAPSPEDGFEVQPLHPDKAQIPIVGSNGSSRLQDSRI
The assay is described as follows: Inhibition of human glycine transporter 1.
The molecule `CCCS(=O)(=O)N1CCC(c2ccccn2)([C@@H](C)NC(=O)c2ccc(Cl)cc2Cl)CC1` registered an IC50 of 661 nM. The result for `CCCS(=O)(=O)N1CCC(CNC(=O)c2ccccc2)(C2CCCCN2C)CC1` (centres undefined) reads 3310 nM. In turn, `CCCS(=O)(=O)N1CCC(CNC(=O)c2ccccc2OC(F)(F)F)(C2CCCCN2C)CC1` (centres undefined) had an IC50 of 21.2 nM. Next, `CCCS(=O)(=O)N1CCC(CNC(=O)c2ccc(Cl)cc2Cl)(C2CCCCN2C)CC1` (centres undefined): 9.5 nM. In turn, `CCCS(=O)(=O)N1CCC(CNC(=O)c2ccc(Cl)cc2Cl)(c2cccnc2)CC1` registered an IC50 of 69.3 nM. Next, `CCCS(=O)(=O)N1CCC(CNC(=O)c2ccccc2Cl)(c2cccc(N3CCOCC3)n2)CC1`: 482 nM. Next, `CCCS(=O)(=O)N1CCC(c2ccccn2)([C@@H](C)NC(=O)c2cc(F)cc(F)c2Cl)CC1`: 576 nM; `CCCS(=O)(=O)N1CCC(CNC(=O)c2ccccc2)(c2cccc(N3CCOCC3)n2)CC1`: over 5000 nM; `CCCS(=O)(=O)N1CCC(c2ccccn2)([C@@H](C)NC(=O)c2ccccc2OC(F)(F)F)CC1`: 2590 nM. Next, `CCCS(=O)(=O)N1CCC(CNC(=O)c2ccccc2Cl)(C2CCCCN2C)CC1` (centres undefined): 58.9 nM; `CCCS(=O)(=O)N1CCC(CNC(=O)c2ccc(Cl)cc2Cl)(c2cccc(N3CCOCC3)n2)CC1`: 412 nM; `CCCS(=O)(=O)N1CCC(CNC(=O)c2ccccc2C)(C2CCCCN2C)CC1` (centres undefined): 148 nM. As for `CCCS(=O)(=O)N1CCC(CNC(=O)c2cc(F)cc(F)c2Cl)(C2CCCCN2C)CC1` (centres undefined), the IC50 is 43.1 nM.

For `CCCS(=O)(=O)N1CCC(CNC(=O)c2ccc(Cl)cc2Cl)(c2ccncc2)CC1`, the IC50 amounted to 79.3 nM.

What is called IC50 is the concentration that gives 50% inhibition.
